Measurements from patent publication US20240415858A1, “PROMOTING MYELINATION BY N-ACETYLGLUCOSAMINE AND MODULATION OF N-GLYCAN BRANCHING” (THE REGENTS OF THE UNIVERSITY OF CALIFORNIA, priority 2021, published 2024).

Legend:
[1] = tested on: mouse neural stem cells (NSC) derived from the medial ganglionic eminence of E12.5 mouse embryos; assay: Oligodendrogenesis from mouse neural stem cells in vitro (flow cytometry, immunofluorescence); format: cell-based
Excerpt: Mice were bred and utilized as approved by the University of California, Irvine Institutional Animal Care and Use Committee. Dorsal forebrain cortical tissue was dissected from the medial ganglionic eminence (MGE) at embryonic day 12.5 (E12) of CD1 mice (Charles River) or Mgat5−/− C57BL/6 mice and their wildtype littermates and placed in dissection buffer comprising PBS, 0.6% glucose, and 50 U/mL Pen/Strep. Tissue from multiple embryos within the same litter were pooled, and a subsequent culture from a single litter was considered a biological repeat. The tissue was dissociated using 0.05% Trypsin-EDTA at 37° C. for 10 min, followed by treatment with soybean trypsin inhibitor (Life Technologies). Dissociated cells were re-suspended in proliferation medium comprising DMEM, 1× B27, 1× N2, 1 mM sodium pyruvate, 2 mM L-glutamine, 1 mM N-acetylcysteine, 20 ng/mL EGF (PeproTech), 10 ng/mL bFGF (PeproTech), and 2 μg/mL heparin and seeded at 150,000 cells/mL (non-tissue culture treated plastic plates) and grown as non-adherent spheres. Cell cultures were passaged approximately every 3 days using enzyme-free NeuroCult Chemical Dissociation Kit (Mouse) (StemCell Technologies). Cultures were passaged at least once prior to experimental use. For experiments, passaged cells were cultured in proliferation media (bFGF and EGF) or differentiation media (bFGF (10 ng/ml) and PDGF-AA (10 ng/ml); Life technologies) for 48 hours with or without the presence of GIcNAc (Ultimate Glucosamine, Wellesley Therapeutics) or kifunensine (GlycoSyn). Neurospheres were dispersed using the enzyme-free NeuroCult kit before being analyzed by flow cytometry using one or more of the following antibodies: anti-CD140a/PDGF-RA PE conjugate (1:200, A15785, Molecular Probes), anti-04 Alexa Fluor 488 conjugated (1:200, FAB1326G, RnD systems), Anti-GaIC Alexa Fluor 647 1:200, MAB342-AF647, Millipore), Anti-Olig2 (1:200, AB9610, Millipore) with anti-rabbit Alexa Fluor 488 (1:200, thermofisher).
For neural stem cell (NSC) immunofluorescence, whole neurospheres were seeded onto laminin-coated coverslips (Neuvitro) in proliferation medium. After 24 hours, proliferation media was removed and replaced with differentiation medium (same components as proliferation medium but excluding EGF, bFGF, and heparin) to induce differentiation. For analysis of mouse brains, brains were incubated in 30% sucrose for at least 72 hours, embedded in OCT (Tissue-tek), frozen for at least 48 hours at −80° C., and then cut at 40 microns on a cryostat. Multiple sections from −1 bregma to −2.5 bregma were then stained with antibodies for MBP (1:100; MAB386, Millipore), Olig2 (1:200; AB9610, Millipore), CC1 (1:100; OP90, Millipore), degraded MBP (1:200, AB5864, Millipore) and Amyloid Precursor Protein (APP, 1:200; clone 22C11). After overnight incubation with primary antibody, tissues were washed and incubated with secondary antibodies: goat anti-rat Alexa-fluor 488 (1:200, Thermofisher), goat anti-rabbit TxRd (1:200, Thermofisher). APP is a marker for neuro-axonal damage while co-staining for CC1 and Olig2 are markers of mature oligodendrocytes. In order to examine the amount of myelin, slices were incubated in Fluoromyelin (1:300; F34651, Thermofisher) for 45 minutes. Images were acquired on a Keyence fluorescence microscope. Mean fluorescence intensity of the medial corpus callosum was measured using ImageJ.
Oligodendrogenesis were examined in vitro using mouse neural stem cells (NSC) derived from the medial ganglionic eminence of E12.5 mouse embryos, where OPC's first appear. […] Consistent with increased PDGFRα surface expression, GIcNAc also promoted pre-oligodendrocyte differentiation as evidenced by augmented expression of Oligodendrocyte Transcription Factor (OLIG2) and increased numbers of 04 and GaIC positive cells (FIGS. 1A, 1B and 1C, FIGS. 5B and 5C). […]

MS patients = assay: Phase 1 trial: four-week confirmed improvement in disability (EDSS); format: in vivo, human; settings: unblinded
Experimental: Four-week confirmed improvement in disability (EDSS) was also evaluated in the 6 g and 12 g cohorts. […] Baseline EDSS scores were compared with scores after 4 weeks of oral GIcNAc that were confirmed 4 weeks later at the last study visit.

[2] = NSCs, 48 hrs, growth media lacking exogenous differentiation cytokines

## CC(=O)N[C@H]1C(O)O[C@H](CO)[C@@H](O)[C@@H]1O (stereo partly drawn) [GIcNAc, N-acetylglucosamine]
[1]; GIcNAc combined with PDGF-AA (differentiation media)
  NSC differentiation to O4+ pre-oligodendrocytes: enhanced
[1]; GIcNAc in growth media vs differentiation media with exogenous PDGF-AA
  initiating oligodendrogenesis, compared with PDGF-AA differentiation media: more potent than differentiation media containing exogenous PDGF-AA
[1]; NSCs, 48 hrs, growth media
  pre-oligodendrocyte differentiation (OLIG2 expression, numbers of O4 and GalC positive cells): promoted
[1]; [2]
  N-glycan branching (L-PHA flow cytometry): significantly increased
  PDGFRα surface expression: significantly increased
[1]; NSCs, growth media
  development of pre-oligodendrocytes (PDGFRα O4+), double staining: promoted development
  number of OPC's (PDGFRα+O4−): no change
MS patients; 6 g/day, 4 of 18 subjects
  subjects with 4-week confirmed improvement in clinical disability (EDSS): 22%
MS patients; 12 g/day, 5 of 16 subjects
  subjects with 4-week confirmed improvement in clinical disability (EDSS): 31%
